Experimental data from patent US8598157B2, “5-alkynyl-pyridines” (Boehringer Ingelheim International GmbH, priority 2011, dated 2013).
pEC50, pIC50: −log10 of the molar value.

Assays:
PI3Kalpha = PI3Kalpha (Homo sapiens (Human), UniProt P42336); test: Inhibition of PI3Kalpha-induced PIP-2 phosphorylation (filter-binding assay); type: biochemical; details: 33P-ATP, p85alpha/His-p110alpha, read-out: IC50 PI3Kα
From the text: Inhibition of PI3Kalpha-Induced PIP-2 Phosphorylation
This PI3Kalpha assay provides an IC50 value indicative of the activity of the compounds to inhibit PI3 kinase alpha activity. Inhibition of PI3 kinase would be expected to be indicative of activity in treating conditions of excessive or anomalous cell proliferation, such as cancers. See also J. A. Engelman, Nature Reviews Cancer, 2009, 9, 550-562; A. Carnero, Expert Opin. Investig. Drugs, 2009, 18, 1265-1277 and P. Liu et al., Nature Reviews Drug Discovery, 2009, 8, 627-64.
Method Type: Filter-Binding-Assay
Aliquoted in desired amounts and stored at −80° C. Final assay concentration 25 ng/well • Phosphotyrosin PDGFRbeta-peptide H-CGG-pY-[…]-pY-VPMLDM-NH2 was synthesized by Jerini Peptide Technologies (JPT) and used in a final conc. of 1.7 μM (stock 100 μM prepared in Assay buffer with DTT, aliquoted in desired amounts and stored at −80° C.) • Cold ATP (from Sigma; A-7699), 100 μM stock solution in H2O, use 1 μM final concentration in assay • [33P]-ATP, 370 MBq/ml from Amersham (#AH9968), use 0.5 μCi/well (10 mCi/ml) • Clear 96-well plates from Greiner (#655 162) • Filter plates: Perkin Elmer UniFilter GF/B #6005177 • Microscint 0 (from Perkin Elmer, #6013611) 2. Assay Procedure
The substrate-containing lipid vesicles are dissolved to a concentration of 0.637 mg lipid blend/ml assay buffer (with BSA, freshly added) in 50 ml Falcon->keep on ice, followed by ultrasonication (pulse of 15 sec followed by a pause of 10 sec, 4×). Compounds are serially diluted in assay buffer+6% DMSO and […] of each dilution is added per well of a 96-well plate (compounds are tested in duplicates) and mixed with 30 μl of the lipid vesicles containing PDGFR-Peptide ([…]) and PI3K alpha (25 ng/well final). The mixture is then incubated for 20 minutes at room temperature. Subsequently, 20 μl of assay buffer containing […] cold ATP and 0.5 μCi/20 μl 33P-ATP are added. The plates are then incubated at room temperature for 120 minutes (shaking with 300 rpm).
The reaction mix is transferred onto filter plates using “filtermate harvester” from Packard: filter plates are rinsed with PBS, then the reaction mix is filtered onto the filter plate, washed 5 times with PBS and are allowed to dry for 30-60 minutes at 50° C.
The plate bottom is sealed with Perkin Elmer white adhesive foil and 25 μl/well Microscint( ) are added, the top is covered with transparent adhesive foil and the plate is measured with Wallac Trilux 1450 Microbeta Counter.
As positive control serve wells containing vehicle controls (1% DMSO in assay buffer), showing non-inhibited kinase activity (high values). Wells containing assay buffer instead of enzyme can serve as control for background activity (low values).
Calculate IC50 values using the Smiley program (based on GrapPad Prism)

H460 cells = test: alamarBlue H460 cell assay (antiproliferative/cytotoxicity); type: cell-based; details: NCI-H460; H460 human lung carcinoma cells
From the text: (§1) The H460, MB453, U87, MCF7 and BT474 alamarBlue cell assays provide EC50 values indicative of the antiproliferative or cytotoxic effects of the compounds to respectively the H460 (human non small cell line cancer), MB-453 (breast cancer cell line), U87 (glioblastoma cell line), MCF7 (breast cancer cell line) and BT474 (breast cancer cell line). As known in the field, antiproliferative or cytotoxic effect against this cell lines would be expected to be indicative of activity in treating lung, breast and brain cancers. See R. Marone R et al. Biochim. Biophys. Acta. 2008 January; 1784(1):159-85. S. Yaguchi et al., J. Natl. Cancer Inst. 2006 Apr. 19; 98(8):545-56.
(§2) Method Type: Antiproliferative/Cytotoxicity
(§3) alamarBlue® is designed to provide a rapid and sensitive measure of cell proliferation and cytotoxicity in various human and animal cell lines. The assay is based on the reduction of alamarBlue in the reducing environment of living (metabolically active) cells. In the presence of added cytotoxic or antiproliferative compounds, the innate metabolic activity ceases.
(§4) AlamarBlue is soluble and stable in culture medium. Measurements are made fluorometrically by exciting at 530-560 nm and measuring emission at 590 nm. In reporting percent alamarBlue reduction by monitoring fluorescence, data are expressed as fluorescence emission intensity units as a function of time of incubation.
(§5) 3. Equipment • 96-well plates, flat bottom (Falcon, Cat. No.: 353072) • 96-well plates, U-shaped (Costar, Cat. No.: 3799) • CO2-Incubator • Microplate Reader, Spectramax Plus, Molecular Devices 4. Typical Procedure • Day 0: Seed 3000 BT-474 cells (IMDM/5% FCS, 1% NEAA, 1% Sodiumpyruvat) in 150 μl medium into a 96-well plate, flat bottom (include mediumblank). Incubate plates at 37° C. in a CO2 incubator overnight. • Day 1: Dilute compounds to a concentration 40 μM->1:3 in medium, 10 dilution steps, in 96-well plates. • Add 50 μl per well of each dilution (total volume per well 200 μl; final conc. of cpds: 10 μM->1:3). If required, test further dilutions. • All concentrations are tested in duplicates. • Controls: Cells w/o cpd. (+50 μl medium/DMSO). • Cells are incubated with compounds for 5-6 days. • Day 6 or 7: Add 25 μl of alamarBlue solution to each well and incubate for 8 hours at 37° C. Measure fluorescence by exciting at 530-560 nm and measuring emission at 590 nm. 5. Evaluation • Subtract average value for medium blank from sample readings • Calculate EC50 using GraphPad Prism (Fifty)

U87 cells = test: U87 cell assay (antiproliferative/cytotoxicity); type: cell-based; details: U-87MG human glioblastoma cells
From the text: as §1, §2, §3, §4, §5

MB453 cells = test: alamarBlue MB453 cell assay (antiproliferative/cytotoxicity); type: cell-based; details: Homo sapiens; MDA MB 453 breast cancer cell line
From the text: as §1, §2, §3, §4, §5

BT474 cells = test: alamarBlue BT474 cell assay (antiproliferative/cytotoxicity); type: cell-based; details: BT-474 human breast cancer cell line
From the text: as §1, §2, §3, §4, §5

PI3Kalpha, sequence (P42336 whole entry): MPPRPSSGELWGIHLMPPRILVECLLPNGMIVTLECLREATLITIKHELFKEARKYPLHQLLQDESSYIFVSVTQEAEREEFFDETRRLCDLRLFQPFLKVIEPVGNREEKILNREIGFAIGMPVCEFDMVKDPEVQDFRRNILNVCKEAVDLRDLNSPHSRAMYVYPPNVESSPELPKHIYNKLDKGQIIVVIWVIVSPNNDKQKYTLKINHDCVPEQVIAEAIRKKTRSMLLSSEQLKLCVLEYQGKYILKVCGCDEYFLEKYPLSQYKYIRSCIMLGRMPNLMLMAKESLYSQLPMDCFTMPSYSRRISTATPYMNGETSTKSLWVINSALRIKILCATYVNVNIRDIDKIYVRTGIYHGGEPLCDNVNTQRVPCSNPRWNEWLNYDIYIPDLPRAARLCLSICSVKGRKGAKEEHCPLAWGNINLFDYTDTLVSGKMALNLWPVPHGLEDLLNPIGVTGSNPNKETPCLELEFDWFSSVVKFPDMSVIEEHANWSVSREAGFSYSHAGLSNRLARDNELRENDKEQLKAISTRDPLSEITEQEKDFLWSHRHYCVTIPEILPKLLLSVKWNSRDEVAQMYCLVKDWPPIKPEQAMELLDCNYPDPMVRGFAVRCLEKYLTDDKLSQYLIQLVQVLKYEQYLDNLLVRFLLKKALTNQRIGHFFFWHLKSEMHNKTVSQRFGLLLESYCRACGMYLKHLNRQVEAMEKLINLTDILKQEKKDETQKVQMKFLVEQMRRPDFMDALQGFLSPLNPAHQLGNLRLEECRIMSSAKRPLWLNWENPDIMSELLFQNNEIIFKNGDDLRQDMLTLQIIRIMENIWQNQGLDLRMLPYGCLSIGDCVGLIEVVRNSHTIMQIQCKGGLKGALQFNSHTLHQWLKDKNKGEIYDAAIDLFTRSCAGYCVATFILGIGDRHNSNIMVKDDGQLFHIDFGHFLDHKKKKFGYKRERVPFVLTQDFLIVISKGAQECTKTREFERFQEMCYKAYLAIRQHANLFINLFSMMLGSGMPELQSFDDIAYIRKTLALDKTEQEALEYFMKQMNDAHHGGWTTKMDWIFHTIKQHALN

Row | Structure (SMILES) | pIC50 (PI3Kalpha) | pEC50 (H460 cells) | pEC50 (U87 cells) | pEC50 (MB453 cells) | pEC50 (BT474 cells)
1 | CCc1ncnc(NC)c1C#Cc1cnc(C)c(NS(C)(=O)=O)c1 [Example I-33, N-[5-(4-Ethyl-6-methylamino-pyrimidin-5-ylethynyl)-2-methyl-pyridin-3-yl]-methanesulfonamide] | 7.31 | – | – | – | –
2 | CCc1nc(N)nc(N2CCC(O)CC2)c1C#Cc1cnc(C)c(NS(C)(=O)=O)c1 [Example I-35, N-{5-[2-Amino-4-ethyl-6-(4-hydroxy-piperidin-1-yl)-pyrimidin-5-ylethynyl]-2-methyl-pyridin-3-yl}-methanesulfonamide] | 8.30 | 4.60 | – | – | –
3 | CCc1nc(N)nc(N2CCCCC2)c1C#Cc1cnc(C)c(NS(C)(=O)=O)c1 [Example I-36, N-[5-(2-Amino-4-ethyl-6-piperidin-1-yl-pyrimidin-5-ylethynyl)-2-methyl-pyridin-3-yl]-methanesulfonamide] | 8.30 | – | – | – | –
4 | CCc1nc(N)nc(N2CCC(C)(O)CC2)c1C#Cc1cnc(C)c(NS(C)(=O)=O)c1 [Example I-43, N-{5-[2-Amino-4-ethyl-6-(4-hydroxy-4-methyl-piperidin-1-yl)-pyrimidin-5-ylethynyl]-2-methyl-pyridin-3-yl}-methanesulfonamide] | 8.52 | 5.44 | – | – | –
5 | Cc1ncc(C#Cc2c(C)ncnc2NC(C)C)cc1NS(=O)(=O)c1ccccc1 [Example I-59, N-[5-(4-Isopropylamino-6-methyl-pyrimidin-5-ylethynyl)-2-methyl-pyridin-3-yl]-benzenesulfonamide] | 8.22 | 6.14 | 6.00 | 5.72 | 5.30
6 | COCCN(C)c1ncnc(C)c1C#Cc1cnc(C)c(NS(=O)(=O)c2ccccc2)c1 [Example I-71, N-(5-{4-[(2-Methoxy-ethyl)-methyl-amino]-6-methyl-pyrimidin-5-ylethynyl}-2-methyl-pyridin-3-yl)-benzenesulfonamide] | 8.30 | 5.79 | 5.92 | 5.68 | 5.82
7 | Cc1ncc(C#Cc2c(C)ncnc2N(C)CC2CCOC2)cc1NS(=O)(=O)c1ccccc1 (stereo not drawn) [Example I-72, N-(2-Methyl-5-{4-methyl-6-[methyl-(tetrahydro-furan-3-ylmethyl)-amino]-pyrimidin-5-ylethynyl}-pyridin-3-yl)-benzenesulfonamide] | 8.10 | – | – | – | 5.29
8 | CCc1ncnc(N2CCOCC2)c1C#Cc1cnc(OC)c(NS(=O)(=O)CCOC)c1 [Example I-78, 2-Methoxy-ethanesulfonic acid [5-(4-ethyl-6-morpholin-4-yl-pyrimidin-5-ylethynyl)-2-methoxy-pyridin-3-yl]-amide] | 8.70 | – | – | – | 6.33

Further compounds by rising pIC50 (PI3Kalpha), results first:

Row | pIC50 (PI3Kalpha) | Structure (SMILES) | pEC50 (H460 cells) | pEC50 (U87 cells) | pEC50 (MB453 cells) | pEC50 (BT474 cells)
9 | 8.70 | CCc1ncnc(N2CCCCC2)c1C#Cc1cnc(C)c(NS(C)(=O)=O)c1 [Example I-44, N-[5-(4-Ethyl-6-piperidin-1-yl-pyrimidin-5-ylethynyl)-2-methyl-pyridin-3-yl]-methanesulfonamide] | 6.93 | – | – | –
10 | 8.70 | Cc1ncc(C#Cc2c(C)ncnc2N2CCOC[C@H]2C)cc1NS(=O)(=O)c1ccccc1 [Example I-69, N-{2-Methyl-5-[4-methyl-6-((R)-3-methyl-morpholin-4-yl)-pyrimidin-5-ylethynyl]-pyridin-3-yl}-benzenesuIfonamide] | – | – | – | 6.13
11 | 8.70 | Cc1ncc(C#Cc2c(C)ncnc2N2CCCOCC2)cc1NS(=O)(=O)c1ccccc1 [Example I-73, N-[2-Methyl-5-(4-methyl-6-[1,4]oxazepan-4-yl-pyrimidin-5-ylethynyl)-pyridin-3-yl]-benzenesulfonamide] | – | – | – | 5.71
12 | 8.70 | COC1CCN(c2ncnc(C)c2C#Cc2cnc(C)c(NS(=O)(=O)c3ccccc3)c2)CC1 [Example I-74, N-{5-[4-(4-Methoxy-piperidin-1-yl)-6-methyl-pyrimidin-5-ylethynyl]-2-methyl-pyridin-3-yl}-benzenesulfonamide] | 6.15 | 6.25 | 6.01 | 6.40
13 | 8.70 | CCc1ncnc(N2CCOCC2)c1C#Cc1cnc(OC)c(NS(=O)(=O)CC)c1 [Example I-76, Ethanesulfonic acid [5-(4-ethyl-6-morpholin-4-yl-pyrimidin-5-ylethynyl)-2-methoxy-pyridin-3-yl]-amide] | – | – | – | 6.47
14 | 9.00 | CCc1ncnc(N2CCOCC2)c1C#Cc1cnc(OC)c(NS(C)(=O)=O)c1 [Example I-75, N-[5-(4-Ethyl-6-morpholin-4-yl-pyrimidin-5-ylethynyl)-2-methoxy-pyridin-3-yl]-methanesulfonamide] | – | – | – | 6.61
15 | 9.00 | CCc1ncnc(N2CCOCC2)c1C#Cc1cnc(OC)c(NS(=O)(=O)C2CC2)c1 [Example I-77, Cyclopropanesulfonic acid [5-(4-ethyl-6-morpholin-4-yl-pyrimidin-5-ylethynyl)-2-methoxy-pyridin-3-yl]-amide] | – | – | – | 6.58
16 | 9.12 | CCc1ncnc(N2CCOCC2)c1C#Cc1cnc(OC)c(NS(=O)(=O)c2cccs2)c1 [Example I-79, Thiophene-2-sulfonic acid [5-(4-ethyl-6-morpholin-4-yl-pyrimidin-5-ylethynyl)-2-methoxy-pyridin-3-yl]-amide] | – | – | – | 7.70
17 | 9.26 | CCc1ncnc(N2CCC(C)(O)CC2)c1C#Cc1cnc(C)c(NS(C)(=O)=O)c1 [Example I-42, N-{5-[4-Ethyl-6-(4-hydroxy-4-methyl-piperidin-1-yl)-pyrimidin-5-ylethynyl]-2-methyl-pyridin-3-yl}-methanesulfonamide] | 6.53 | – | – | –
18 | 9.26 | CCc1ncnc(N2CCOCC2)c1C#Cc1cnc(OC)c(NS(=O)(=O)c2ccco2)c1 [Example I-80, Furan-2-sulfonic acid [5-(4-ethyl-6-morpholin-4-yl-pyrimidin-5-ylethynyl)-2-methoxy-pyridin-3-yl]-amide] | – | – | – | 7.40
19 | 9.70 | Cc1ncc(C#Cc2c(C)ncnc2N2CCOC[C@@H]2C)cc1NS(=O)(=O)c1ccccc1 [Example I-70, N-{2-Methyl-5-[4-methyl-6-((S)-3-methyl-morpholin-4-yl)-pyrimidin-5-ylethynyl]-pyridin-3-yl}-benzenesulfonamide] | – | – | – | 6.21
